In ChEMBL document CHEMBL3875217, “Identification of a melampomagnolide B analog as a potential lead molecule for treatment of acute myelogenous leukemia” (Bioorg Med Chem, 2017):
One block for each compound: values may come before it.

Experiments:
[1] = Antileukemic activity against human M9-ENL1 cells assessed as increase in apoptotic cell level after 24 hrs by Annexin V/propidium iodide/7-AAD based FACS analysis; format: functional; conditions: M9-ENL1, 24 h
[2] = Drug uptake in BALB/c mouse blood at 200 mg/kg, po after 15 mins by LC/MS/MS analysis; format: ADME, organism-based; conditions: in vivo, 0.25 h
[3] = Tmax in BALB/c mouse at 200 mg/kg, po by LC/MS/MS analysis; format: ADME, organism-based; conditions: in vivo
[4] = Cmax in BALB/c mouse at 200 mg/kg, po by LC/MS/MS analysis; format: ADME, organism-based; design: dose 200 mg/kg, route oral; conditions: in vivo
[5] = Oral bioavailability in BALB/c mouse at 200 mg/kg by LC/MS/MS analysis; format: ADME, organism-based; conditions: in vivo
[6] = AUC in BALB/c mouse at 200 mg/kg, po by LC/MS/MS analysis; format: ADME, organism-based; conditions: in vivo
[7] = Total clearance in BALB/c mouse at 20 mg/kg, iv or 200 mg/kg, po by LC/MS/MS analysis; format: ADME, organism-based; conditions: in vivo
[8] = Apparent elimination half life in BALB/c mouse at 200 mg/kg, po by LC/MS/MS analysis; format: ADME, organism-based; conditions: in vivo
[9] = Apparent elimination half life in BALB/c mouse at 271.2 mg/kg, po by LC/MS/MS analysis; format: ADME, organism-based; conditions: in vivo
[10] = Oral bioavailability in BALB/c mouse at 271.2 mg/kg by LC/MS/MS analysis; format: ADME, organism-based; conditions: in vivo
[11] = Tmax in BALB/c mouse at 271.2 mg/kg, po by LC/MS/MS analysis; format: ADME, organism-based; conditions: in vivo
[12] = Drug uptake in BALB/c mouse blood at 271.2 mg/kg, po after 15 mins by LC/MS/MS analysis; format: ADME, organism-based; conditions: in vivo, 0.25 h
[13] = Cmax in BALB/c mouse at 271.2 mg/kg, po by LC/MS/MS analysis; format: ADME, organism-based; design: dose 271.2 mg/kg, route oral; conditions: in vivo
[14] = Potency index, ration of parthenolide EC50 to compound EC50 for human M9-ENL1 cells; format: functional
[15] = Total clearance in BALB/c mouse at 27.1 mg/kg, iv or 271.2 mg/kg, po by LC/MS/MS analysis; format: ADME, organism-based; conditions: in vivo
[16] = Drug uptake in BALB/c mouse Plasma at 271.2 mg/kg, po after 15 mins by LC/MS/MS analysis; format: ADME, organism-based; conditions: in vivo, 0.25 h

EC50 [1]: 1600 nM
Compound: C=C1C(=O)O[C@H]2[C@H]1CC/C(COC(=O)Nc1nc3ccccc3[nH]1)=C\CC[C@@]1(C)O[C@@H]21

EC50 [1]: 7000 nM
Compound: C=C1C(=O)O[C@@H]2[C@H]3O[C@]3(C)CC/C=C(\C)CC[C@@H]12

Drug uptake [2]: Active | Tmax [3]: 2 h | Cmax [4]: 4.5 µM | F [5]: 6.7% | AUC [6]: 868.3 µmol·min/L | clearance [7]: 70 mL/min/kg | betat1/2(app) [8]: 61.8 min | EC50 [1]: 15500 nM
Compound: C=C1C(=O)O[C@H]2[C@H]1CC/C(CO)=C\CC[C@@]1(C)O[C@@H]21

EC50 [1]: 2100 nM
Compound: C=C1C(=O)O[C@H]2[C@H]1CC/C(COC(=O)n1ccnc1C)=C\CC[C@@]1(C)O[C@@H]21

betat1/2(app) [9]: 92.3 min | F [10]: 45.5% | Tmax [11]: 0.502 h | Drug uptake [12]: Active | Cmax [13]: 10.6 µM | clearance [15]: 200 mL/min/kg | Drug uptake [16]: Active | AUC [6]: 2137.5 µmol·min/L | EC50 [1]: 900 nM
Compound: C=C1C(=O)O[C@H]2[C@H]1CC/C(COC(=O)n1ccnc1)=C\CC[C@@]1(C)O[C@@H]21
Ratio EC50 [14]: 8

EC50 [1]: 3900 nM
Compound: C=C1C(=O)O[C@H]2[C@H]1CC/C(COC(=O)NCc1nc3ccccc3[nH]1)=C\CC[C@@]1(C)O[C@@H]21

EC50 [1]: 1400 nM
Compound: C=C1C(=O)O[C@H]2[C@H]1CC/C(COC(=O)n1cc(C)nc1CC)=C\CC[C@@]1(C)O[C@@H]21
